# Assay results published in ChEMBL document CHEMBL5291721, “A preclinical secondary pharmacology resource illuminates target-adverse drug reaction associations of marketed drugs” (Nat Commun, 2023).
# How the values were obtained:
# Adenosine receptor A1 = molecular target: T1, Adenosine receptor A1 (Homo sapiens, UniProt P30542)
# T1 sequence (P30542 whole entry): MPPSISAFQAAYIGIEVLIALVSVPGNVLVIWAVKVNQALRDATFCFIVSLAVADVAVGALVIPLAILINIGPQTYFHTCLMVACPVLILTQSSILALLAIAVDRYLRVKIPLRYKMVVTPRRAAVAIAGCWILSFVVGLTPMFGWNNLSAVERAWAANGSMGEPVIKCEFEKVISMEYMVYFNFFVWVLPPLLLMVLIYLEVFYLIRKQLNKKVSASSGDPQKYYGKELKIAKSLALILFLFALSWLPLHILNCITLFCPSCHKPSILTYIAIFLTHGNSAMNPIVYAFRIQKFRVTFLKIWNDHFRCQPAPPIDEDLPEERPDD
# Prothrombin = Prothrombin (Homo sapiens, UniProt P00734); assay type: functional
# Progesterone receptor = molecular target: T2, Progesterone receptor (Homo sapiens, UniProt P06401)
# T2 sequence (P06401 whole entry): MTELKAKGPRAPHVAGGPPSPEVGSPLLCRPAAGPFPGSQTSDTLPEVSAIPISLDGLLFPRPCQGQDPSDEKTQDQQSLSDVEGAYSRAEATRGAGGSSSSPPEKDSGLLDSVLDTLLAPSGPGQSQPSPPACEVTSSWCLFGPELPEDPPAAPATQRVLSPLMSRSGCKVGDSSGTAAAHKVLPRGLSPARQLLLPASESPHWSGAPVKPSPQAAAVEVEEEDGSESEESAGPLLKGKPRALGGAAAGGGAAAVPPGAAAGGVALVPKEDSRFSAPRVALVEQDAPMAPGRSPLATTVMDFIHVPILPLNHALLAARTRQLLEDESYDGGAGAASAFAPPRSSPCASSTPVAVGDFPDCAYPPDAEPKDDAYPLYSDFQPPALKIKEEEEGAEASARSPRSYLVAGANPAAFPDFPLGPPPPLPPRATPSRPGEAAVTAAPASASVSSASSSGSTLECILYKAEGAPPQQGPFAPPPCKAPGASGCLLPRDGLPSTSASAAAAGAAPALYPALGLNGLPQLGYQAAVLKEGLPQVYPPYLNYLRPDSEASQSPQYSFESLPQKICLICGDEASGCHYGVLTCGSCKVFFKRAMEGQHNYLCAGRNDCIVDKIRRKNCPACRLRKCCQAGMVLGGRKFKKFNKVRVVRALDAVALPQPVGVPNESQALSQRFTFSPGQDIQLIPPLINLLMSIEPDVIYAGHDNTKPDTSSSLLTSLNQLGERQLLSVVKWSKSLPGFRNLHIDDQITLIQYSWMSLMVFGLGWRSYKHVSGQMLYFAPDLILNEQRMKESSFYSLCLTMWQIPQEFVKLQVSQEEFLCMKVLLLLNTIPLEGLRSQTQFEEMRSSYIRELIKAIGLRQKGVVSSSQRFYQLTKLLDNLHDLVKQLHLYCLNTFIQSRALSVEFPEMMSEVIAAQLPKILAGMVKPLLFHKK
# [1] = molecular target: T3, Amine oxidase [flavin-containing] A (Homo sapiens, UniProt P21397); assay type: functional
# T3 sequence (P21397 whole entry): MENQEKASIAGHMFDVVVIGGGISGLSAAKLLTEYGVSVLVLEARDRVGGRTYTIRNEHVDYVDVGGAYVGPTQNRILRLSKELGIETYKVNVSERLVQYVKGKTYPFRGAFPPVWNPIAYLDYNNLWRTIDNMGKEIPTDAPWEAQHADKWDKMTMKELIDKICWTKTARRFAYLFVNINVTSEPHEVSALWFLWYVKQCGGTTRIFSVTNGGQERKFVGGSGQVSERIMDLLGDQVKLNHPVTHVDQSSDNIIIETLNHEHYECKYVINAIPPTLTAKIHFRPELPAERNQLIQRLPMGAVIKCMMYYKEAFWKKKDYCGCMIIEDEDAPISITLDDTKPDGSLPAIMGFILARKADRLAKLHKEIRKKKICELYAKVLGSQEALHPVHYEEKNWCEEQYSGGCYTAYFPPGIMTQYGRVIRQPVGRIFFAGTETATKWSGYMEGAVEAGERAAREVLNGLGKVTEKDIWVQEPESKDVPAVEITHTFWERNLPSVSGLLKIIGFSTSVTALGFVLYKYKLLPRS
# [2] = molecular target: cGMP-inhibited 3',5'-cyclic phosphodiesterase 3A (Homo sapiens, UniProt Q14432); assay type: functional
# [3] = molecular target: Hydroxycarboxylic acid receptor 2 (Homo sapiens, UniProt Q8TDS4)
# D(1B) dopamine receptor = D(1B) dopamine receptor (Homo sapiens, UniProt P21918)
# [4] = molecular target: 5-hydroxytryptamine receptor 5A (Homo sapiens, UniProt P47898)
# Substance-K receptor = molecular target: T4, Substance-K receptor (Homo sapiens, UniProt P21452)
# T4 sequence (P21452 whole entry): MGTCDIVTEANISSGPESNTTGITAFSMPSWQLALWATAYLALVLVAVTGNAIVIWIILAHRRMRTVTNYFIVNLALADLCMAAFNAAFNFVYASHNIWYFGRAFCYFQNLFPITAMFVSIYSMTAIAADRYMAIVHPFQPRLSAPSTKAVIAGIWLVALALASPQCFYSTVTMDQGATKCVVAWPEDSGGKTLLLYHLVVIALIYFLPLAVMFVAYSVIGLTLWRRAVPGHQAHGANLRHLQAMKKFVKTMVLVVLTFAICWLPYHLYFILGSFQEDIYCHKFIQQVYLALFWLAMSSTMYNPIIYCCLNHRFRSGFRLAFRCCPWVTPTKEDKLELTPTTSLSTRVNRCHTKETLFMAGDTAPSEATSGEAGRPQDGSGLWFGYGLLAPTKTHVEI
# D(1A) dopamine receptor = D(1A) dopamine receptor (Homo sapiens, UniProt P21728)
# Mu-type opioid receptor = Mu-type opioid receptor (Homo sapiens, UniProt P35372)
# Also: assay procedure not described here.
# Chain of Hydroxycarboxylic acid receptor 2 (Q8TDS4 whole entry): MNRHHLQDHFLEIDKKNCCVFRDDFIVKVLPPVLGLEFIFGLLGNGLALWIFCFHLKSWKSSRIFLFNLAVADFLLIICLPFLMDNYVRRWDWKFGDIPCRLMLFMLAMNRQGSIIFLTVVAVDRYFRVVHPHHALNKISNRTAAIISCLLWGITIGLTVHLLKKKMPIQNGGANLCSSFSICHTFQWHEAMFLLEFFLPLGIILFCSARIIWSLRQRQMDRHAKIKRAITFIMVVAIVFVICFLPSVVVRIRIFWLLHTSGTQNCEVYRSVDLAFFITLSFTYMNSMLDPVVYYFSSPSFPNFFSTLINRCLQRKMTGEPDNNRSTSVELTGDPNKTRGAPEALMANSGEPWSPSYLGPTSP
# Chain of cGMP-inhibited 3',5'-cyclic phosphodiesterase 3A (Q14432 whole entry): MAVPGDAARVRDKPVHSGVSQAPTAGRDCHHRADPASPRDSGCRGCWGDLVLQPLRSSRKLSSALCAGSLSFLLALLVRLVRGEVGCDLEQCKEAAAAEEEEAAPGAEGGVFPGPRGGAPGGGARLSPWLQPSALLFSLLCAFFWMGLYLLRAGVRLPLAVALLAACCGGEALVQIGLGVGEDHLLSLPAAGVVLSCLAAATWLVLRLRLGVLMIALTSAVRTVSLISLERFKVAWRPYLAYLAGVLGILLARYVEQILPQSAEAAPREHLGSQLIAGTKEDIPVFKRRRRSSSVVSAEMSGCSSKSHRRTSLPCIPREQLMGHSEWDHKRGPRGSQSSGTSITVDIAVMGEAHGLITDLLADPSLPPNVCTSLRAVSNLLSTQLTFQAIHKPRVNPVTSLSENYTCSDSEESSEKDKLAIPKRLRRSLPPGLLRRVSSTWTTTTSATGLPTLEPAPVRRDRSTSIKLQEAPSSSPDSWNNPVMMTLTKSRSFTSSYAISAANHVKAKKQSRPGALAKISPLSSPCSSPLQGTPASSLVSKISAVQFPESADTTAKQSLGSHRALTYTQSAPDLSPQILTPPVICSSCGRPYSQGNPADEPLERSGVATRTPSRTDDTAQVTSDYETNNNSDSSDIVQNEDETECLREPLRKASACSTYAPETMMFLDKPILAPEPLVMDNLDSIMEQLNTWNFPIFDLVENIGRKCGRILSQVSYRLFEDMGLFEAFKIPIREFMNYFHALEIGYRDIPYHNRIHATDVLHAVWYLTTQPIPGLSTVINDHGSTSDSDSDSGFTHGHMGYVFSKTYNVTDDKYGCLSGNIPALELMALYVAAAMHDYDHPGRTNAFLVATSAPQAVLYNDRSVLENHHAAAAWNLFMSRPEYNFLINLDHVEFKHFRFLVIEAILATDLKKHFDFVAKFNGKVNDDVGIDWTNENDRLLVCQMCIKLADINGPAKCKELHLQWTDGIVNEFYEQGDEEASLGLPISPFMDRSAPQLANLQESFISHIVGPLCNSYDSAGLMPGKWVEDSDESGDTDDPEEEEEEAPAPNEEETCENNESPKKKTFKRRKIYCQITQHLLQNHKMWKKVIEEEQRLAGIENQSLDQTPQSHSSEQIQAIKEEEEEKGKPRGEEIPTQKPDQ
# Chain of 5-hydroxytryptamine receptor 5A (P47898 whole entry): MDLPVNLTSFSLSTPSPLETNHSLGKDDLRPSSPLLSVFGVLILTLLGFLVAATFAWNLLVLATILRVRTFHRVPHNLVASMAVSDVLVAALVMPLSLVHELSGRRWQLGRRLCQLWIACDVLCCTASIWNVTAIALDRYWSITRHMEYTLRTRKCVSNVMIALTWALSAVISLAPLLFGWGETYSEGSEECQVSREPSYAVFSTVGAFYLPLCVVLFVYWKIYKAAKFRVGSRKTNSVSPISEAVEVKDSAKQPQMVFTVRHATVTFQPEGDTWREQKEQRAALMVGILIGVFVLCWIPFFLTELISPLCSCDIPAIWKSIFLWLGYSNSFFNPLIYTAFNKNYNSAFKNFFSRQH
# Chain of D(1B) dopamine receptor (P21918 whole entry): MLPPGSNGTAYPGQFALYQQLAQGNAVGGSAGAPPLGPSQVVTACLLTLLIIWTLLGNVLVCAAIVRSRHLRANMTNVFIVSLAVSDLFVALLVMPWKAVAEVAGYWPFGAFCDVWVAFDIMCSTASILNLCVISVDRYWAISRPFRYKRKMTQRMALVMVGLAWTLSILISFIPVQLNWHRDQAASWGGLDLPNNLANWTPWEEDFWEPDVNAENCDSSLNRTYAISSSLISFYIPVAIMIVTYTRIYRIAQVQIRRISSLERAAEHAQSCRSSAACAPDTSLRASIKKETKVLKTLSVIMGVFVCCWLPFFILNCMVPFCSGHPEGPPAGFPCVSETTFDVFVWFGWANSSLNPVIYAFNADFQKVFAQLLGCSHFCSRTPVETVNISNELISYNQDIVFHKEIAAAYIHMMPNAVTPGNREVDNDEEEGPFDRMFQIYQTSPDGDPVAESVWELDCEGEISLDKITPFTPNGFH
# Chain of Mu-type opioid receptor (P35372 whole entry): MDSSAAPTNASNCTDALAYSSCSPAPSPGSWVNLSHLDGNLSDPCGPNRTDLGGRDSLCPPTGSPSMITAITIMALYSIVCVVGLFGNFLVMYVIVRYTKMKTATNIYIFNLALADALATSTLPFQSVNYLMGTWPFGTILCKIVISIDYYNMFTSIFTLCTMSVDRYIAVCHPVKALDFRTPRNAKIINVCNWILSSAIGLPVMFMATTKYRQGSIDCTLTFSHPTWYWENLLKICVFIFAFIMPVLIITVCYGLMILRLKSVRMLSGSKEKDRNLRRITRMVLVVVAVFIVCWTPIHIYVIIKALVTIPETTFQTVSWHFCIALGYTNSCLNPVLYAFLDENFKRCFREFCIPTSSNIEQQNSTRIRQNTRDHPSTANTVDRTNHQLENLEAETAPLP
# Chain of D(1A) dopamine receptor (P21728 whole entry): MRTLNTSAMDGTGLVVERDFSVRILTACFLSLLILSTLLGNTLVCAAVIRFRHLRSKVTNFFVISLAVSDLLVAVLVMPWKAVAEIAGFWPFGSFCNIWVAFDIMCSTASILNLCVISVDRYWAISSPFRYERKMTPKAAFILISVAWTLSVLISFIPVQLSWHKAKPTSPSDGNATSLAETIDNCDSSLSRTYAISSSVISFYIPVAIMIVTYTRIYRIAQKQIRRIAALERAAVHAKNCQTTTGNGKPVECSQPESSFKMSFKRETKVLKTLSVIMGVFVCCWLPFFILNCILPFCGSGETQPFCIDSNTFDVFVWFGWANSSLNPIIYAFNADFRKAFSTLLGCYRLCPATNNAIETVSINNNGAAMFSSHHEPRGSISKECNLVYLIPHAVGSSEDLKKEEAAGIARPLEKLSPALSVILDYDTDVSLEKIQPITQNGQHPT
compound,measurement,setting,value
NCCCC(O)(P(=O)(O)O)P(=O)(O)O [ALENDRONIC ACID],AC50,Adenosine receptor A1,> 30 µM
same,AC50,Prothrombin,> 30 µM
same,AC50,Progesterone receptor,> 30 µM
same,AC50,[1],> 30 µM
same,AC50,[2],> 30 µM
CCCC(C)(COC(N)=O)COC(=O)NC(C)C (configuration not stated) [CARISOPRODOL],AC50,[3],> 10 µM
CC(=O)OCC(CCn1cnc2cnc(N)nc21)COC(C)=O [FAMCICLOVIR],AC50,[3],> 10 µM
COC1=C(OC)C(=O)C(CCCCCCCCCCO)=C(C)C1=O [IDEBENONE],AC50,D(1B) dopamine receptor,> 10 µM
same,AC50,[4],> 10 µM
same,AC50,Substance-K receptor,> 10 µM
O=C1CN=C(c2ccccc2)c2cc(Cl)ccc2N1 [NORDAZEPAM],AC50,D(1B) dopamine receptor,> 10 µM
same,AC50,[4],> 10 µM
same,AC50,Substance-K receptor,> 10 µM
CC(CCc1ccccc1)NC(C)C(O)c1ccc(O)cc1 (configuration not stated) [NYLIDRIN],AC50,D(1B) dopamine receptor,> 10 µM
same,AC50,[4],> 10 µM
same,AC50,Substance-K receptor,> 10 µM
O=C1Nc2ccc(Cl)cc2C(c2ccccc2)=NC1O (configuration not stated) [OXAZEPAM],AC50,D(1B) dopamine receptor,> 10 µM
same,AC50,[4],> 10 µM
same,AC50,Substance-K receptor,> 10 µM
C[n+]1ccccc1/C=N/O [PRALIDOXIME],AC50,Adenosine receptor A1,> 30 µM
same,AC50,D(1A) dopamine receptor,> 30 µM
same,AC50,Prothrombin,> 30 µM
same,AC50,Mu-type opioid receptor,> 30 µM
same,AC50,Progesterone receptor,> 30 µM
same,AC50,[1],> 30 µM
same,AC50,[2],> 30 µM
CC(C)CC(N(C)C)C1(c2ccc(Cl)cc2)CCC1 (configuration not stated) [SIBUTRAMINE],AC50,[3],> 10 µM
N#C[C@@H]1CCCN1C(=O)CNC12CC3CC(CC(O)(C3)C1)C2 [VILDAGLIPTIN],AC50,D(1B) dopamine receptor,> 10 µM
same,AC50,[4],> 10 µM
same,AC50,Substance-K receptor,> 10 µM
COLISTIN,AC50,Adenosine receptor A1,> 30 µM
same,AC50,D(1A) dopamine receptor,> 30 µM
same,AC50,Prothrombin,> 30 µM
same,AC50,Mu-type opioid receptor,> 30 µM
same,AC50,Progesterone receptor,> 30 µM
same,AC50,[1],> 30 µM
same,AC50,[2],> 30 µM
